In PMC8192908 (Scientific Reports, 2021):
Values joined by “and” are separate entries in the source; they are usually repeats but may differ in a detail not shown here. Identical values can stand only once.

What was measured:
PDE10A = target: T1, PDE10A (Homo sapiens, UniProt Q9Y233); assay: ITC binding of PTX to the catalytic domain of PDE10A
T1 construct: Catalytic domain of each protein was cloned between BamHI and XhoI restriction sites in; 6xHis-SUMO (N, cleaved yes); made in house; host or cells: E. coli Rosetta 2 (DE3)
Description: (§1) Supplementary Materials and Methods
(§2) Cloning, expression and purification of catalytic domains of PDE4A, […]
(§3) The full length human PDE4A (1005 bp), PDE4D (981 bp) and PDE10A (957 bp) cDNAs, cloned in pET28a(+) expression vector, were purchased from Biomatik, Canada.
(§4) Catalytic domain of each protein was cloned between BamHI and XhoI restriction sites in 6x-His-SUMO-tagged bacterial expression vector. The catalytic domain constructs of PDE4A, PDE4D and PDE10A were transformed in E. coli Rosetta 2 (DE3) competent cells for expression. After growing the transformed cells at 37 °C, till the OD 600nm reached 0.5-0.7, the culture containing constructs of PDE4A and PDE4D were induced with 0.1 mM IPTG and the cultures were incubated at 15 °C for 16-18 h, whereas those with PDE10A constructs were induced with 0.5 mM at incubated for 35 -40 h followed by cell harvesting. Harvested cells were suspended in lysis buffer (500 mM NaCl, 50 mM Tris - Cl pH 8.0, 10 mM Imidazole, 3 mM β-mercaptoethanol) and lysed by sonication (Qsonica). The lysates were cleared by centrifugation at 20,000g for 1h and supernatant was passed through Ni-NTA affinity column (His-Trap, GE Healthcare). Eluted proteins were subjected to salt exchange with a buffer containing 100 mM NaCl, 50 mM Tris-Cl pH 8.0, 3 mM β-mercaptoethanol. The collected proteins were further purified using ion - exchange chromatography (Q column, Hi-Trap, GE Healthcare) followed by overnight treatment with ULP1 at 4 °C to cleave 6xHis-SUMO tag. The tag was separated from proteins by a subsequent Ni-NTA purification. The proteins were further purified on size exclusion 16/600 200 pg column (GE Healthcare) pre-equilibrated with a buffer (100 mM […]
NaCl, 50 mM Tris pH 8.0, 5% Glycerol, 3 mM β-mercaptoethanol). After purifying with a gel filtration column, purity was determined on 12% SDS -PAGE and all three proteins were more than 95% pure (Supplementary Figure S10). Purified proteins were concentrated to 20mg/ml, flash cooled with liquid nitrogen and stored at -80°C.
Isothermal titration calorimetry (ITC) binding studies
The equilibrium molar dissociation constant (Kd), stoichiometry (N) and […]
of PDE4A, PDE4D and PDE10A were determined at 25°C, using Affinity ITC (TA instruments). Protein and ligand solutions for titration were prepared in the same buffer.
The reference cell was filled with a distilled water and the sample cell was filled with 350 […]
μL of either PDE4A or PDE4D or PDE10A (75-500 µM). […]
sequentially injected in 2 μL per injection (for a total 20 injections), at a regular interval of 120-150s, while stirring at 125 rpm. The ITC generated data were processed using NanoAnalyze software (TA Instruments). The ITC data was deconvoluted with the “independent” curve fitting model using a nonlinear least-squares algorithm. […]

PDE4D = target: T2, PDE4D (Homo sapiens, UniProt Q08499); assay: ITC binding of PTX to the catalytic domain of PDE4D
T2 construct: Catalytic domain of each protein was cloned between BamHI and XhoI restriction sites in; 6xHis-SUMO (N, cleaved yes); made in house; host or cells: E. coli Rosetta 2 (DE3)
Description: as §1, §2, §3, §4
(§5) NaCl, 50 mM Tris pH 8.0, 5% Glycerol, 3 mM β-mercaptoethanol). After purifying with a gel filtration column, purity was determined on 12% SDS -PAGE and all three proteins […]
(§6) concentrated to 20mg/ml, flash cooled with liquid nitrogen and stored at -80°C.
(§7) Isothermal titration calorimetry (ITC) binding studies […]
(§8) of PDE4A, PDE4D and PDE10A were determined at 25°C, using Affinity ITC (TA instruments). […]

PDE4A = target: T3, PDE4A (Homo sapiens, UniProt P27815); assay: ITC binding of PTX to the catalytic domain of PDE4A
T3 construct: Catalytic domain of each protein was cloned between BamHI and XhoI restriction sites in; 6xHis-SUMO (N, cleaved yes); made in house; host or cells: E. coli Rosetta 2 (DE3)
Description: as §1, §2, §3, §4, §5, §6, §7, §8

mouse bone marrow cells = details: cited from earlier work

T2 sequence (Q08499 386-715 limits assumed): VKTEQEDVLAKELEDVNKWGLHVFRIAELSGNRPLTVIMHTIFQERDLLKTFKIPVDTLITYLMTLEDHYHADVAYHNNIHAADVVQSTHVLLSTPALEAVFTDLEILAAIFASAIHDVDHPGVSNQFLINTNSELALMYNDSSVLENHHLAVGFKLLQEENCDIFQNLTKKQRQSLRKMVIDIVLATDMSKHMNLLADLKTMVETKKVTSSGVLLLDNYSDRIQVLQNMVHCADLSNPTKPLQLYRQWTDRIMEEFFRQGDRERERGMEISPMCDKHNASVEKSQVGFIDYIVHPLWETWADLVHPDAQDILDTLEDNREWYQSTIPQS
T3 sequence (P27815 357-686 limits assumed): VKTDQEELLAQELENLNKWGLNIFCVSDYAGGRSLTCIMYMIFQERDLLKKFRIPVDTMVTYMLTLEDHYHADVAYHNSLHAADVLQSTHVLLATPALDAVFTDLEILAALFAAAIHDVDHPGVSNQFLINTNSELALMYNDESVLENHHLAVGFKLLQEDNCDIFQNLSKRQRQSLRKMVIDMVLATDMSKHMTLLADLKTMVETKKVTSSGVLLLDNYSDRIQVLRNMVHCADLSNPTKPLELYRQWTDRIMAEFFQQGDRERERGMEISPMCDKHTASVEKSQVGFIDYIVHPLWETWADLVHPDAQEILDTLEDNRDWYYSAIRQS
T1 sequence (Q9Y233 718-1035 limits assumed): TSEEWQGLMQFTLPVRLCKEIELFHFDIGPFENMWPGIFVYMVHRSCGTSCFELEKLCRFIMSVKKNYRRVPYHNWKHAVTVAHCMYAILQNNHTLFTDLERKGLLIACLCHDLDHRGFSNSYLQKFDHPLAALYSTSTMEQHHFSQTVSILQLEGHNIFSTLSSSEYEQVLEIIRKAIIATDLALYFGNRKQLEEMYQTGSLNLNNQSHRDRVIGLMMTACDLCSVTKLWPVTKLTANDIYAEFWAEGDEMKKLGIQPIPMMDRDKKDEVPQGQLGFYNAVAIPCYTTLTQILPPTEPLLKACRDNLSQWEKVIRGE

Row | SMILES | change in enthalpy (ΔH) (PDE10A) | change in entropy (ΔS) (PDE10A) | stoichiometry (N) (PDE10A) | Kd (PDE10A; 25°C, read-out: molar dissociation constant (Kd)) | change in enthalpy (ΔH) (PDE4D) | change in entropy (ΔS) (PDE4D) | stoichiometry (N) (PDE4D) | change in enthalpy (ΔH) (PDE4A) | change in entropy (ΔS) (PDE4A) | stoichiometry (N) (PDE4A) | genotoxic effect on mouse bone marrow cells in vivo (mouse bone marrow cells)
1 | CC(=O)CCCCn1c(=O)c2c(ncn2C)n(C)c1=O [PTX, pentoxifylline] | ~ -8.25±0.04 kcal/mol | ~ -7.8 cal/mol.K | ~ 1.03±0.04 | 44 µM and ~44 µM | ~ -10.56±1.07 kcal/mol | ~ -16.47 cal/mol.K | ~ 0.93±0.07 | ~ -8.3±0.30 kcal/mol | ~ -11.90 cal/mol.K | ~ 1.08±0.03 | –
2 | COc1ccc2cc(/C=C/C(=O)CCCCn3c(=O)c4c(ncn4C)n(C)c3=O)ccc2c1 [PTXm-1] | – | – | – | – | – | – | – | – | – | – | significantly lower genotoxic effect
